Results on one compound are retold here after publication PMC10899790, “A bromodomain-independent mechanism of gene regulation by the BET inhibitor JQ1: direct activation of nuclear receptor PXR” (Nucleic Acids Research, 2023).

In one data set the target is T1, mouse PXR (mPXR) (Mus musculus, UniProt O54915).
T1 sequence (O54915 1-431): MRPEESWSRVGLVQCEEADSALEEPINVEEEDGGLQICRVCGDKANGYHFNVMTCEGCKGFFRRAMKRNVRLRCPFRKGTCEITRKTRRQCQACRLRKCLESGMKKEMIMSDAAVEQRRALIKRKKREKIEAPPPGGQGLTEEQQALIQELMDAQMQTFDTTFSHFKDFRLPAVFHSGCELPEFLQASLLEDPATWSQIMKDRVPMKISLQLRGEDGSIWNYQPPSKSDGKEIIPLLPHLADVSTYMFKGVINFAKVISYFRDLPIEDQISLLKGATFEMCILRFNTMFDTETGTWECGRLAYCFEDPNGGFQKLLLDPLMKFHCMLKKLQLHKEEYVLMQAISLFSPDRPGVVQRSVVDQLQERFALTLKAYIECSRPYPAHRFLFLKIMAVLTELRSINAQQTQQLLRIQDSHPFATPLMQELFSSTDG
To be noted: mPXR-transfected HepG2, 24 h; PCN as 100% control. Here is the method:
(§1) Assays were performed similarly as previously described with minor modifications ([30–32]). HepG2 cells (7.5 × 10^5/well) were plated in six-well tissue culture-treated plates. The following day, cells were co-transfected with pGL3-CYP3A4-luc (2 μg/well), pRL-CMV (200 ng/well) and 100 ng/well of either empty vector (pcDNA3), pcDNA3-FLAG-PXR, pCMV6-mPXR or pGL4.53-PGK-PXR using Lipofectamine 3000 (Thermo Fisher Scientific). Twenty-four hours after transfection, cells were trypsinized and suspended in phenol red-free DMEM (Thermo Fisher Scientific) supplemented with 5% charcoal/dextran-treated FBS (HyClone), and 1 × 10^4 cells/well in 25 μl media were added to white 384-well plates. […] After 24 h, the Dual-Glo Luciferase Assay System (Promega) and EnVision microplate reader (PerkinElmer) were used to measure firefly and Renilla luciferase activities. CMV-driven Renilla luciferase was used as an indicator of general transcriptional modulation by the test compounds and is plotted as fold change (FC) relative to DMSO controls. Assays utilizing pGL4.54[luc2/TK], pGL4.53[luc2/PGK], or pGL4.13[luc2/SV40] were similarly performed and normalized. For the PXR-responsive CYP3A4-luciferase reporter, the measured relative light units (RLU) were normalized for each well using equation (1),
RLUT0901317 represents the measured RLU from wells containing 1 μM T0901317. […]

A further data set addresses T2, PXR LBD (Homo sapiens, UniProt O75469).
T2 construct: pcDNA3-SmBiT-PXR LBD (residues 139–434); expressed in transfected cells; host or cells: HepG2
T2 sequence (O75469 139-434): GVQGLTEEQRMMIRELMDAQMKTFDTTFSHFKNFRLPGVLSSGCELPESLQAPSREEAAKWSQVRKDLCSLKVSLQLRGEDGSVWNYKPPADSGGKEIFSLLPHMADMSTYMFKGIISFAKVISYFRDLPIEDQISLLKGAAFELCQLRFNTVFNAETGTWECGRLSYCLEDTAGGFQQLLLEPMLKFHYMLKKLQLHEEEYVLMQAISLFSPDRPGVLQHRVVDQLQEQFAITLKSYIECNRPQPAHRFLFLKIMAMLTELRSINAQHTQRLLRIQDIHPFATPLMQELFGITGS
T2 sequence (Q15788 621-765 partner limits assumed): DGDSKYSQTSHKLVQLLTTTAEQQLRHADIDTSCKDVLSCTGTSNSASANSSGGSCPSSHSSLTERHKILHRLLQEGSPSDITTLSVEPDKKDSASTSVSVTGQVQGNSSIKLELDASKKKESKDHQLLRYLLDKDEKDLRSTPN
The data set is described as follows: Cellular PXR LBD SRC-1 recruitment assay (NanoBiT). The class given is cell-based. The conditions noted are these: HepG2, NanoBiT, 30 min; 100 nM T0901317 or 5 μM other compound. Here is the method:
Nano Luciferase Binary Technology (NanoBiT) ([33]) was used to assess the interaction of SRC-1 with PXR LBD in HepG2 cells (Supplementary Figure S4). […] The following day, cells were co-transfected with pcDNA3-SmBiT-PXR LBD (100 ng/well) and pcDNA3-LgBiT-SRC-1 (100 ng/well) using Lipofectamine 3000. Empty vector (pcDNA3, 800 ng/well) was used as carrier DNA due to the low amounts of expression plasmids used. […] After 24 h, 5 μl media containing 2.5% DMSO, 5X Nano-Glo Live Cell Substrate from the Nano-Glo Live Cell Assay System (Promega), and 5× concentration of compound was added, resulting in 0.5% DMSO and either 100 nM T0901317 or 5 μM other compound. The plates were incubated for 30 min at RT, and Nano Luciferase activity was then measured with an EnVision microplate reader.

The subject of another data set is CMV promoter. Nature of the data set: CMV-Renilla luciferase reporter. The class given is cell-based, human. The conditions noted are these: HepG2, 24 h; fold change relative to DMSO. (Reporter assays use an easily measured gene product as a stand-in for the process of interest.)
The target of a further data set is T3, human PXR (Homo sapiens, UniProt O75469).
T3 sequence (O75469 1-434): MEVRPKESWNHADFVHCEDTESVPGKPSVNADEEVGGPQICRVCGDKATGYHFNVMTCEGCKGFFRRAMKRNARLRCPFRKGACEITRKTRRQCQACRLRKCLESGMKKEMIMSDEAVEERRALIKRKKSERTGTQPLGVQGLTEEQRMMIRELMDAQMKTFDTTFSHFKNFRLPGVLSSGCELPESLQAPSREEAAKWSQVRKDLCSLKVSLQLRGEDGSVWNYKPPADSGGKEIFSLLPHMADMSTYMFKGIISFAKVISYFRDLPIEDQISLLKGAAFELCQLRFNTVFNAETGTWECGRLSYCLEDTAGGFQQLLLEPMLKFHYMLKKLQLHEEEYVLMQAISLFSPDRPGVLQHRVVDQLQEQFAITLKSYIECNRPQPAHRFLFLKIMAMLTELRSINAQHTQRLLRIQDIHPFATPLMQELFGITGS
Nature of the data set: PXR transactivation assay (CYP3A4-luciferase reporter). The procedure: as §1
RLUT0901317 represents the measured RLU from wells containing 1 μM T0901317. For mPXR assays, 5 μM PCN was used in place of T0901317.

A further data set deals with PXR. The data set is described as follows: RNA induction in HepaRG: PXR RNA (RT-qPCR). The class given is cell-based, human. The conditions noted are these: differentiated HepaRG, 24 h; FC relative to DMSO.
For another data set, the system named is CYP3A4. To be noted: cited from earlier work.

`Cc1sc2c(c1C)C(c1ccc(Cl)cc1)=N[C@@H](CC(=O)OC(C)(C)C)c1nnc(C)n1-2` [JQ1, (+)-JQ1]: the “activation of CYP3A4-luciferase reporter in the presence of mPXR” value at mouse PXR (mPXR) is given as “did not activate the CYP3A4-luciferase reporter in the presence of mPXR”. In addition, at PXR LBD, the “SRC-1 recruitment to PXR LBD in cells” value was “JQ1 > birabresib > CPI-203”. Moreover, in the data set on CMV promoter, the “CMV-Renilla luciferase reporter expression” value is given as “robustly activated Renilla luciferase expression from a CMV promoter”. The “activation of CYP3A4-luciferase reporter with PXR expressed from a PGK promoter” value on human PXR (HepG2, 24 h, PGK-driven PXR) is on record as “retained activation of the CYP3A4-luciferase reporter”. In addition, the “activation of PXR-responsive CYP3A4-luciferase reporter” value on human PXR (human) is given as “activated the CYP3A4-luciferase reporter with potency comparable to that of the prototypical PXR agonist rifampicin (Figure 2A) but with slightly reduced efficacy”. Also, the “PXR RNA expression” value in the data set on PXR was “greatly reduced PXR RNA”. Also, the CYP3A4 substrate entry in the data set with CYP3A4 is recorded as “is a CYP3A4 substrate”.
